Laboratory results reported in US20240116912A1, “COMPOUNDS AND METHODS FOR MODULATING FXR” (Terns Pharmaceuticals, Inc., priority 2020, published 2024).
Values joined by “and” are separate entries in the source; they are usually repeats but may differ in a detail not shown here. Equal values may be shown once.

Tests used:
[1] = molecular target: full length human FXR protein (Homo sapiens (Human), UniProt Q96RI1); test: FXR cellular assay (FXR-SRCP β-gal enzyme fragment complementation in CHO-K1 cells, chemiluminescence); format: cell-based; conditions: CHO-K1 cells with SRCP-EA and ProLink-labeled FXR, 0-10 micromolar compound, 37° C. for 6h, read-out: EC50 FXR-cell Luminescence/
Chain of full length human FXR protein (Q96RI1 whole entry, the tested form may be a part): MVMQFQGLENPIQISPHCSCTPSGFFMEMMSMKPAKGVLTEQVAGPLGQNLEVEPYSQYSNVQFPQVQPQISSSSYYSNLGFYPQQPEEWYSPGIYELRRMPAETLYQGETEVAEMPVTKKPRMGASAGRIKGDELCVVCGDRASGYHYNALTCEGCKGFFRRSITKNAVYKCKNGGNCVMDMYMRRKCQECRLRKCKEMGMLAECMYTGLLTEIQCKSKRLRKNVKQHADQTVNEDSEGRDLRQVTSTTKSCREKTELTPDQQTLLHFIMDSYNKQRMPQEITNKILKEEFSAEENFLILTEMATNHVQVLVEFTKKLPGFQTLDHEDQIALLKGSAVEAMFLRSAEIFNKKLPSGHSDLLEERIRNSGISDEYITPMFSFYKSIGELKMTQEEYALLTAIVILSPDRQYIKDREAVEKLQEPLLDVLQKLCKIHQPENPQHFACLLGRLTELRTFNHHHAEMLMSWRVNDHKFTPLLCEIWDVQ
In short: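 CHO-K1 cells stably expressing ProLink-tagged full-length FXR and SRCP-EA treated with compound (0-10 micromolar, 1% DMSO) for 6 h at 37 °C. Ligand-driven FXR-coactivator binding reconstitutes β-gal; chemiluminescence read after 1 h detection reagent at room temperature.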

[2] = molecular target: ligand binding domain (LBD) of recombinant human FXR (Homo sapiens (Human), UniProt Q96RI1); test: FXR cell free coactivator (SRC-1) recruitment assay, TR-FRET; conditions: FXR LBD (amino acids 244-476) with labeled SRC-1 domain, 25° C. for 60 minutes, activity relative to CDCA maximum; read-out: EC50 FXR- Biochemical TR-FRET/μM
Chain of ligand binding domain (LBD) of recombinant human FXR (Q96RI1 254-486): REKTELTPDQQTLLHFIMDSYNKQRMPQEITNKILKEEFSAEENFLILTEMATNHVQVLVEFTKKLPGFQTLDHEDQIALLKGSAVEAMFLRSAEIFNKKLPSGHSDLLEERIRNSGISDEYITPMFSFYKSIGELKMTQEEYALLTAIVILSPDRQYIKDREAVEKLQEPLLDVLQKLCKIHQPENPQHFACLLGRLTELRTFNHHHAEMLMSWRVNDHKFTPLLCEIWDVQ
Chain of ligand binding domain (LBD) of recombinant human FXR (Q15788 whole entry partner, the tested form may be a part): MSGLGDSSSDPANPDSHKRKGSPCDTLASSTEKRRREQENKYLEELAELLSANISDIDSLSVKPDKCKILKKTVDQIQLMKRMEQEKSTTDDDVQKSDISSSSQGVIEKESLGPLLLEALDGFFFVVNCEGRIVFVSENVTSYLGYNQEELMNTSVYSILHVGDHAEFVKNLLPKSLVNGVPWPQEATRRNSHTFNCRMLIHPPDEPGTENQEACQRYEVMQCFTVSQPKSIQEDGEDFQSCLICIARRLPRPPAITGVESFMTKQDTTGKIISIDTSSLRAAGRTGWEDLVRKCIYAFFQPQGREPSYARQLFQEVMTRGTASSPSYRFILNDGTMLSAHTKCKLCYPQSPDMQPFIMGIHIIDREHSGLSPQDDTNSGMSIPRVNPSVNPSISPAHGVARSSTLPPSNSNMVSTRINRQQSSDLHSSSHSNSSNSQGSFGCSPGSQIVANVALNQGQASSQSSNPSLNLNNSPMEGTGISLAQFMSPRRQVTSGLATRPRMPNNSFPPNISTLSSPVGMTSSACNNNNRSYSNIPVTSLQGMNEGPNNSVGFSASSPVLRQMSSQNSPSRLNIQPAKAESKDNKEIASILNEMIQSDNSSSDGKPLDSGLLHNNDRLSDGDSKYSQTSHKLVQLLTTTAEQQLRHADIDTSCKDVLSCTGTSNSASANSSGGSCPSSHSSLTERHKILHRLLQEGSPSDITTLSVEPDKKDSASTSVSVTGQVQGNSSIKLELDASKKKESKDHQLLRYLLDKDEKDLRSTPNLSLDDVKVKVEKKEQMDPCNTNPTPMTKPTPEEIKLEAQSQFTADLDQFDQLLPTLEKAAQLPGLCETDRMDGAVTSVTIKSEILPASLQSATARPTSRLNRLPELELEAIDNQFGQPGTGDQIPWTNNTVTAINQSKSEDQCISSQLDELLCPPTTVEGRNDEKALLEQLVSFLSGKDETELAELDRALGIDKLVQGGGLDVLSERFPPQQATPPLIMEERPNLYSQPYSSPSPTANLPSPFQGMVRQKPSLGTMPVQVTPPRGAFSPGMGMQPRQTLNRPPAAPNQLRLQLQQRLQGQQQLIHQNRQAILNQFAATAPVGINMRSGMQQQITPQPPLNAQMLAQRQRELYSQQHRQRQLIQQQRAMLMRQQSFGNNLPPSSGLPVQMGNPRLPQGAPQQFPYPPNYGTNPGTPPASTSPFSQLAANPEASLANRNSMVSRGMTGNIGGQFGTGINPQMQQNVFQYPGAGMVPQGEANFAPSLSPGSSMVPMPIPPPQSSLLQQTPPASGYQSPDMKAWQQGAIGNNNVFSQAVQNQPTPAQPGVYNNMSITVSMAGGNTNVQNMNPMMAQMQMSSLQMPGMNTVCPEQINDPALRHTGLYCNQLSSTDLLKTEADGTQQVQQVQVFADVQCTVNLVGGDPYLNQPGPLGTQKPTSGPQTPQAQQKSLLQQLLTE
In short: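 Purified SF9-expressed FXR LBD (aa 244-476) was incubated with compounds (0-10 micromolar) and labeled SRC-1 interaction domain in TR-FRET coregulator buffer G, 60 min at 25° C, 1.2% DMSO. Activity at each concentration was taken as percent of maximal CDCA response to build dose-response curves.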

Row | SMILES | EC50 [1] | EC50 [2]
1 | Clc1cccc(Cl)c1-c1noc(C2CC2)c1COC1CCN(c2ccc(C3=NN3)cc2)CC1 [Example 2, 4-(((1-(4-(1H-diazirin-3-yl)phenyl)piperidin-4-yl)oxy)methyl)-5-cyclopropyl-3-(2,6-dichlorophenyl)isoxazole] | 691 nM | 2.89 µM
2 | O=c1[nH]nc(-c2ccc(N3[C@@H]4CC[C@H]3C[C@@H](OCc3c(-c5ccccc5OC(F)(F)F)noc3C3CC3)C4)nc2)o1 [Example 68, 5-(6-((1R,3r,5S)-3-((5-cyclopropyl-3-(2-(trifluoromethoxy)phenyl)isoxazol-4-yl)methoxy)-8-azabicyclo[3.2.1]octan-8-yl)pyridin-3-yl)-1,3,4-oxadiazol-2(3H)-one] | 168 nM | 0.0264 µM
3 | C[C@@H]1C[C@H](OCc2c(-c3c(F)cccc3F)noc2C2CC2)CCN1c1ccc(-c2noc(=O)[nH]2)cn1 [Example 73, 3-(6-((2R,4R)-4-((5-cyclopropyl-3-(2,6-difluorophenyl)isoxazol-4-yl)methoxy)-2-methylpiperidin-1-yl)pyridin-3-yl)-1,2,4-oxadiazol-5(4H)-one] | 350 nM | 0.0476 µM
4 | O=c1[nH]c(-c2cc(N3CCC(OCc4c(-c5c(Cl)cccc5Cl)noc4C4CC4)CC3)cs2)no1 [Example 30, 3-(4-(4-((5-cyclopropyl-3-(2,6-dichlorophenyl)isoxazol-4-yl)methoxy)piperidin-1-yl)thiophen-2-yl)-1,2,4-oxadiazol-5(4H)-one] | 3620 nM | 0.296 µM
5 | O=c1[nH]nc(-c2ccc(N3CCC(OCc4c(-c5c(Cl)cccc5Cl)noc4C4CC4)CC3)nc2)o1 [Example 37, 5-(6-(4-((5-cyclopropyl-3-(2,6-dichlorophenyl)isoxazol-4-yl)methoxy)piperidin-1-yl)pyridin-3-yl)-1,3,4-oxadiazol-2(3H)-one] | 274 nM | 0.0494 µM
6 | O=c1[nH]c(-c2coc(N3CCC(OCc4c(-c5c(Cl)cccc5Cl)noc4C4CC4)CC3)n2)no1 [Example 29, 3-(2-(4-((5-cyclopropyl-3-(2,6-dichlorophenyl)isoxazol-4-yl)methoxy)piperidin-1-yl)oxazol-4-yl)-1,2,4-oxadiazol-5(4H)-one] | 3190 nM | 0.231 µM
7 | O=c1[nH]nc(-c2ccc(N3[C@@H]4CC[C@H]3C[C@@H](OCc3c(-c5ccccc5OC(F)(F)F)noc3C3CC3)C4)cc2)c(=O)[nH]1 [Example 67, 6-(4-((1R,3r,5S)-3-((5-cyclopropyl-3-(2-(trifluoromethoxy)phenyl)isoxazol-4-yl)methoxy)-8-azabicyclo[3.2.1]octan-8-yl)phenyl)-1,2,4-triazine-3,5(2H,4H)-dione] | 65.7 nM | 0.0127 µM
8 | O=c1[nH]c(-c2csc(N3CCC(OCc4c(-c5c(Cl)cccc5Cl)noc4C4CC4)CC3)c2)no1 [Example 38, 3-(5-(4-((5-cyclopropyl-3-(2,6-dichlorophenyl)isoxazol-4-yl)methoxy)piperidin-1-yl)thiophen-3-yl)-1,2,4-oxadiazol-5(4H)-one] | 263 nM | 0.0286 µM

Further lines, results first:

Row | EC50 [1] | EC50 [2] | SMILES
9 | 97 nM and 49.8 nM | 0.0036 µM and 0.0029 µM | O=c1[nH]c(-c2ccc(N3CCC(OCc4c(-c5c(Cl)cccc5Cl)noc4C4CC4)CC3)cc2)no1 [Example 3, 3-(4-(4-((5-cyclopropyl-3-(2,6-dichlorophenyl)isoxazol-4-yl)methoxy)piperidin-1-yl)phenyl)-1,2,4-oxadiazol-5(4H)-one]
10 | 343 nM | 0.0793 µM | C[C@@H]1C[C@@H](OCc2c(-c3c(Cl)cccc3Cl)noc2C2CC2)CCN1c1ccc(-c2noc(=O)[nH]2)cc1 [Example 21, 3-(4-((2R,4S)-4-((5-cyclopropyl-3-(2,6-dichlorophenyl)isoxazol-4-yl)methoxy)-2-methylpiperidin-1-yl)phenyl)-1,2,4-oxadiazol-5(4H)-one]
11 | 2530 nM | 0.031 µM | O=c1[nH]c(-c2cnc(N3CCC(OCc4c(-c5c(Cl)cccc5Cl)noc4C4CC4)CC3)nc2)no1 [Example 5, 3-(2-(4-((5-cyclopropyl-3-(2,6-dichlorophenyl)isoxazol-4-yl)methoxy)piperidin-1-yl)pyrimidin-5-yl)-1,2,4-oxadiazol-5(4H)-one]
